For assay [1], the target named is riboflavin-binding monoclonal antibody (IgGλ monoclonal anti-flavin antibody) in the serum of a patient with multiple myeloma. As to conditions: cited from earlier work; for binding to the antibody relative to riboflavin: competitive-binding studies with flavin analogs and [14C]-labeled riboflavin.
Assay [2] has as its target apoglucose oxidase (Aspergillus niger, UniProt P13006). The assay can be described thus: hCG ARIS assay: recombination of hCG-FAD conjugate with apoglucose oxidase, with or without FMN. As to conditions: 10 μM FMN, 5 nM hCG-FAD conjugate, no serum. Type of assay: biochemical. On the procedure:
In order to study the effect of flavin analogs in low level protein ARIS assays, a series of experiments were performed. In all cases the following manual assay protocol was employed. FAD-conjugate was incubated in 2.0 mL of assay mixture containing 10 mM DHSA, 0.1M glucose, 25 μg/mL horseradish peroxidase, 0.1% bovine serum albumin (BSA) in 0.1 M sodium phosphate at pH 7.0 with or without 5% serum and/or 10 μM FMN. After 30 minutes at 37° C., 100 μL of apoglucose oxidase/antiglucose oxidase (3 μM apoenzyme) in 50% glycerol and 4 μM 4-aminoantipyrene was added to initiate the reaction. Following a 30 minute assay incubation step at 37° C. the absorbance was measured at 520 nm.
Two controls were performed during this experiment: (1) conjugate, no serum, no FMN (maximum activity) and (2) conjugate, no serum, plus FMN (assess FMN effect on maximum activity).

Broadly, the Kd is the free concentration of one partner at which half of the binding sites on the other are occupied at equilibrium, for simple one-to-one binding.

Sequence of apoglucose oxidase (P13006 23-605 limits assumed): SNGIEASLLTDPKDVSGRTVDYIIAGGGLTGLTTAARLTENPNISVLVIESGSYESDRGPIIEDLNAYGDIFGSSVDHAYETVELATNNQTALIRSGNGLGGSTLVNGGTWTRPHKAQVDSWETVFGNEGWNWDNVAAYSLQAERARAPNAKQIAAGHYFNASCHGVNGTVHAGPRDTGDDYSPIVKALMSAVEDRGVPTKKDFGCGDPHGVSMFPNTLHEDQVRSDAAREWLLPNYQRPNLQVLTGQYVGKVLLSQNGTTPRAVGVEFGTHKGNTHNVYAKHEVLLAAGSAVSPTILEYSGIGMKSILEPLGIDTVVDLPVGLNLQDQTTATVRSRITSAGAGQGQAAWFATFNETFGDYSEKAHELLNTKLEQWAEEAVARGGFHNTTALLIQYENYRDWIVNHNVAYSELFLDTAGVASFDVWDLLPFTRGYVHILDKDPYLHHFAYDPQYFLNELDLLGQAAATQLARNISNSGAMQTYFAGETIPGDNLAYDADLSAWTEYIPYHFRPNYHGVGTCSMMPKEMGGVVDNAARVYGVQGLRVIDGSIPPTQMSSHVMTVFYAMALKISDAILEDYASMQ

For `Cc1cc2nc3c(=O)[nH]c(=O)nc-3n(C[C@H](O)[C@H](O)[C@H](O)CO)c2cc1C` [riboflavin], in assay [1] (high affinity (reversible) flavin-binding site), the equilibrium dissociation constant (Kd) was 0.6 nM. Turning to `Cc1cc2nc3c(=O)[nH]c(=O)nc-3n(C[C@H](O)[C@H](O)[C@H](O)COP(=O)(O)OP(=O)(O)OC[C@H]3O[C@@H](n4cnc5c(N)ncnc54)[C@H](O)[C@@H]3O)c2cc1C` [FAD, flavin adenine dinucleotide], the “binding to the antibody relative to riboflavin” value in assay [1] was “bound strongly to the antibody but not as tightly as FMN or riboflavin”.

For `Cc1cc2nc3c(=O)[nH]c(=O)nc-3n(C[C@H](O)[C@H](O)[C@H](O)COP(=O)(O)O)c2cc1C` [FMN, flavin mononucleotide], in assay [2] (read-out: decrease of the maximum activity of the conjugate), the inhibition at 10 µM was ~9%. The activity at 10 µM in assay [2] (relative to conjugate without FMN (maximum activity)) came out at 91%. The “binding to the antibody relative to riboflavin” value in assay [1] is recorded as “bound equally well to this antibody as riboflavin”.

(Values after patent US4810635A, “Specific binding assays employing label analog to reduce sample interferences” (Miles Inc., priority 1986, dated 1989).)
